Test results reported in US20260042755A1, “GPR6 INVERSE AGONISTS” (MapLight Therapeutics, Inc., priority 2022, published 2026).

Experiments:
GPR6 = target: T1, GPR6 (Homo sapiens, UniProt P46095); assay: GPR6 antagonist functional cAMP assay (LANCE Ultra cAMP TR-FRET, CHO cells stably expressing GPR6); format: cell-based
T1 construct: expressed in transfected cells; host or cells: CHO cells
Method in brief: (§1)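 Suspended cells were plated at 10,000 per well in Krebs-Ringer bicarbonate buffer containing 0.1% BSA and 150 μM Ro 20-1724, then treated with compounds for 45 min at 37 °C. Intracellular cAMP was then quantified by TR-FRET immunoassay.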

GPR3 = target: T2, GPR3 (Homo sapiens, UniProt P46089); assay: GPR3 antagonist functional cAMP assay (LANCE Ultra cAMP TR-FRET, CHO cells stably expressing GPR3); format: cell-based
T2 construct: expressed in transfected cells; host or cells: CHO cells
Method in brief: as §1

[1] = CHO cells stably expressing GPR6, cAMP assay (Example 24)
[2] = CHO cells stably expressing GPR3, cAMP assay (Example 24)
[3] = CHO cells stably expressing GPR6, cAMP assay
[4] = CHO cells stably expressing GPR3, cAMP assay
[5] = procedure as described in Example 24

T1 sequence (P46095 whole entry): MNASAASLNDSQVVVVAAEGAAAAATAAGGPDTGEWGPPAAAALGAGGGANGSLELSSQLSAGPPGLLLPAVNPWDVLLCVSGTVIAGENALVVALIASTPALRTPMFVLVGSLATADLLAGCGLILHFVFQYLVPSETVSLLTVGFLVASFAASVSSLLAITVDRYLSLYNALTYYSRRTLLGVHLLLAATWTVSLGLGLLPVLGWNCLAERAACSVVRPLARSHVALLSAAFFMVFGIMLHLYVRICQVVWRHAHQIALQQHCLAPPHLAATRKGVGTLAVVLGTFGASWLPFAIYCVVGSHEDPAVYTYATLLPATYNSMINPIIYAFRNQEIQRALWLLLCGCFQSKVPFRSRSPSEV
T2 sequence (P46089 whole entry, species assumed): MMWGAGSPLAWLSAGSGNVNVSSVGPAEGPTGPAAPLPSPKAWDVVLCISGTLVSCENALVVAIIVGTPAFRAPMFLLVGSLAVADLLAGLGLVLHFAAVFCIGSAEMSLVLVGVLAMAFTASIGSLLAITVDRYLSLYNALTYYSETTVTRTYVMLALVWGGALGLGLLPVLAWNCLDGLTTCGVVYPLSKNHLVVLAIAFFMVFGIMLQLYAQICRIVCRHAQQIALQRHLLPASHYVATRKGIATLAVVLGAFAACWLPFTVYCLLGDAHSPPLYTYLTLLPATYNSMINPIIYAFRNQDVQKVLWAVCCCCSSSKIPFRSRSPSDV

SMILES | IC50 (GPR6; [1]) | IC50 (GPR3; [2]) | IC50 (GPR6; procedure of Example 24) | IC50 (GPR3; procedure of Example 24) | other results
Fc1ccc(-c2ncc3n2CCN(c2nc4ccncc4nc2-c2cn[nH]c2)C3)c(F)c1 [Compound 130, 4-{2-[3-(2,4-difluorophenyl)-5H,6H,7H,8H-imidazo[1,5-a]pyrazin-7-yl]pyrido[3,4-b]pyrazin-3-yl}-1H-pyrazole] | ≥ 30 µM | ≥ 30 µM | – | – | –
O=c1cccc(-c2nc3ccncc3nc2N2CCC(Oc3ccc(F)cc3F)CC2)[nH]1 [Compound 99, 6-{3-[4-(2,4-difluorophenoxy)piperidin-1-yl]pyrido[3,4-b]pyrazin-2-yl}-1,2-dihydropyridin-2-one] | 1 to 30 µM | 1 to 30 µM | – | – | –
CC(=O)N1CCc2nc(N3CCC(Oc4ccc(F)cc4)C3)c(-c3cnn(C)c3)nc2C1 (stereo not drawn) [Compound 341, 1-{2-[3-(4-fluorophenoxy)pyrrolidin-1-yl]-3-(1-methyl-1H-pyrazol-4-yl)-5H,6H,7H,8H-pyrido[3,4-b]pyrazin-6-yl}ethan-1-one] | – | – | 1 to 30 µM | 1 to 30 µM | –
CC(=O)N1CCc2nc(N3CCC(=Cc4ccc(F)cc4F)CC3)c(-c3cnn(C)c3)nc2C1 [Compound 542, 1-(2-(4-(2,4-difluorobenzylidene)piperidin-1-yl)-3-(1-methyl-1H-pyrazol-4-yl)-7,8-dihydropyrido[3,4-b]pyrazin-6(5H)-yl)ethan-1-one] | – | – | – | – | IC50 (GPR6; [3]): < 0.1 µM; IC50 (GPR3; [4]): 0.1 to 1 µM
COC[C@@H](O)c1cc2nc(N3CCC(Oc4ccc(F)cc4F)CC3)c(-c3cnn(C)c3)nc2cn1 (single isomer, unassigned) [Compound 642] | – | – | 0.1 to 1 µM | 1 to 30 µM | –
CC(=O)N1CCc2nc(N3CCC(Oc4c(F)cc(F)cc4F)CC3)c(-c3cnn(C)c3)nc2C1 [Compound 428, 1-[3-(1-methyl-1H-pyrazol-4-yl)-2-[4-(2,4,6-trifluorophenoxy)piperidin-1-yl]-5H,6H,7H,8H-pyrido[3,4-b]pyrazin-6-yl]ethan-1-one] | 0.1 to 1 µM | 1 to 30 µM | – | – | –
CCN1CCc2nc(N3CCC(Oc4ccc(F)cc4F)CC3)c(-c3cn[nH]c3)nc2C1 [Compound 170, 4-(2,4-difluorophenoxy)-1-[6-ethyl-3-(1H-pyrazol-4-yl)-5H,6H,7H,8H-pyrido[3,4-b]pyrazin-2-yl]piperidine] | 0.1 to 1 µM | 1 to 30 µM | – | – | –
CC(=O)N1CCc2nc(N3CCC(O)(Cc4ccc(F)cc4F)CC3)c(-c3cnn(C)c3)nc2C1 [Compound 699, 1-(2-(4-(2,4-difluorobenzyl)-4-hydroxypiperidin-1-yl)-3-(1-methyl-1H-pyrazol-4-yl)-7,8-dihydropyrido[3,4-b]pyrazin-6(5H)-yl)ethan-1-one] | – | – | 0.1 to 1 µM | 1 to 30 µM | –
CC(=O)N1CCc2nc(N3CCC(C(=O)N(C)C)C3)c(-c3cnn(C)c3)nc2C1 (stereo not drawn) [Compound 388, 1-[6-acetyl-3-(1-methyl-1H-pyrazol-4-yl)-5H,6H,7H,8H-pyrido[3,4-b]pyrazin-2-yl]-N,N-dimethylpyrrolidine-3-carboxamide] | ≥ 30 µM | 0.1 to 1 µM | – | – | –
CCn1cc(-c2nc3c(nc2N2CCC(Oc4ccc(F)cc4F)CC2)CCN(C[C@@H](O)CO)C3)cn1 (single isomer, unassigned) [Compound 290] | – | – | 0.1 to 1 µM | 1 to 30 µM | –
CC(=O)N1CCc2nc(N3CCN(Cc4c(F)cc(F)cc4F)CC3)c(-c3cnn(C)c3)nc2C1 [Compound 343, 1-[3-(1-methyl-1H-pyrazol-4-yl)-2-{4-[(2,4,6-trifluorophenyl)methyl]piperazin-1-yl}-5H,6H,7H,8H-pyrido[3,4-b]pyrazin-6-yl]ethan-1-one] | – | – | 1 to 30 µM | 1 to 30 µM | –
CC(=O)N1CCc2nc(N3CCC(Oc4ccc(F)cc4F)CC3)c(-c3c[nH]c(C)n3)nc2C1 [Compound 116, 1-{2-[4-(2,4-difluorophenoxy)piperidin-1-yl]-3-(2-methyl-1H-imidazol-4-yl)-5H,6H,7H,8H-pyrido[3,4-b]pyrazin-6-yl}ethan-1-one] | 0.1 to 1 µM | 1 to 30 µM | – | – | –
Cn1cc(-c2nc3cnc([C@@H](O)C(C)(C)F)cc3nc2N2CCC(Oc3ccc(F)cc3F)CC2)cn1 (single isomer, unassigned) [Compound 744] | – | – | 0.1 to 1 µM | 1 to 30 µM | –
CC(=O)N1CCc2nc(N3CCC(Oc4ccc(F)cc4F)CC3)c(C3=CCOCC3)nc2C1 [Compound 198, 1-{2-[4-(2,4-difluorophenoxy)piperidin-1-yl]-3-(3,6-dihydro-2H-pyran-4-yl)-5H,6H,7H,8H-pyrido[3,4-b]pyrazin-6-yl}ethan-1-one] | 0.1 to 1 µM | 1 to 30 µM | – | – | –
CCn1cc(-c2nc3cnc(C(O)C(C)(C)O)cc3nc2N2CCN(Cc3ccc(F)cc3F)CC2)cn1 (stereo not drawn) [Compound 270, 1-(2-{4-[(2,4-difluorophenyl)methyl]piperazin-1-yl}-3-(1-ethyl-1H-pyrazol-4-yl)pyrido[3,4-b]pyrazin-7-yl)-2-methylpropane-1,2-diol] | – | – | 0.1 to 1 µM | 1 to 30 µM | –
Fc1ccc(OC2CC3(C2)CN(c2nc4ccncc4nc2-c2cn[nH]c2)C3)c(F)c1 [Compound 26, 2-(6-(2,4-difluorophenoxy)-2-azaspiro[3.3]heptan-2-yl)-3-(1H-pyrazol-4-yl)pyrido[3,4-b]pyrazine] | – | – | – | – | IC50 (GPR6; [5]): 1 to 30 µM; IC50 (GPR3; [5]): 0.1 to 1 µM
CC(C)(O)[C@@](C)(O)c1cc2nc(N3CCN(Cc4ccccc4F)CC3)c(-c3cnn(CF)c3)nc2cn1 (single isomer, unassigned) [Compound 676] | – | – | 0.1 to 1 µM | 1 to 30 µM | –
CNC(=O)Cn1cc(-c2nc3c(nc2N2CCC(Oc4ccc(F)cc4F)CC2)CCN(C(C)=O)C3)cn1 [Compound 25, 2-(4-{6-acetyl-2-[4-(2,4-difluorophenoxy)piperidin-1-yl]-5H,6H,7H,8H-pyrido[3,4-b]pyrazin-3-yl}-1H-pyrazol-1-yl)-N-methylacetamide] | – | – | – | – | IC50 (GPR6; [5]): 1 to 30 µM; IC50 (GPR3; [5]): 1 to 30 µM
CC(C)(O)C(O)c1cc2nc(N3CCN(Cc4ccccc4F)CC3)c(-c3cnn(C(F)F)c3)nc2cn1 (stereo not drawn) [Compound 559, 1-{3-[1-(difluoromethyl)-4-pyrazolyl]-2-{4-[(o-fluorophenyl)methyl]-1-piperazinyl}-1,4,6-triaza-7-naphthyl}-2-methyl-1,2-propanediol] | – | – | – | – | IC50 (GPR6; [3]): 0.1 to 1 µM; IC50 (GPR3; [4]): 1 to 30 µM
CC(=O)N1CCc2nc(N3CCC(Oc4ccc(F)cc4F)CC3)c(-c3cc[nH]c3)nc2C1 [Compound 46, 1-{2-[4-(2,4-difluorophenoxy)piperidin-1-yl]-3-(1H-pyrrol-3-yl)-5H,6H,7H,8H-pyrido[3,4-b]pyrazin-6-yl}ethan-1-one] | – | – | – | – | IC50 (GPR6; [5]): 0.1 to 1 µM; IC50 (GPR3; [5]): 1 to 30 µM
CC(=O)N1CCc2nc(N3CCc4c(cnn4-c4ccc(F)cc4F)C3)c(-c3cnn(C)c3)nc2C1 [Compound 789, 1-{2-[1-(2,4-difluorophenyl)-4,5,6,7-tetrahydro-1H-1,2,5-triazainden-5-yl]-3-(1-methyl-4-pyrazolyl)-5,6,7,8-tetrahydro-1,4,6-triaza-6-naphthyl}-1-ethanone] | – | – | 1 to 30 µM | 1 to 30 µM | –
N#CCN1CCc2nc(N3CCC(Oc4ccc(F)cc4F)CC3)c(-c3cn[nH]c3)nc2C1 [Compound 119, 2-{2-[4-(2,4-difluorophenoxy)piperidin-1-yl]-3-(1H-pyrazol-4-yl)-5H,6H,7H,8H-pyrido[3,4-b]pyrazin-6-yl}acetonitrile] | 0.1 to 1 µM | 1 to 30 µM | – | – | –
CC(C)(O)[C@H](O)c1cc2nc(N3CCC(Oc4ccc(F)cc4F)CC3)c(-c3cnn(CF)c3)nc2cn1 (single isomer, unassigned) [Compound 596] | – | – | – | – | IC50 (GPR6; [3]): 0.1 to 1 µM; IC50 (GPR3; [4]): 1 to 30 µM
CC1CN(Cc2ccc(F)cc2F)CCN1c1nc2ccncc2nc1-c1cn[nH]c1 (single isomer, unassigned) [Compound 45, 4-[(2,4-difluorophenyl)methyl]-2-methyl-1-[3-(1H-pyrazol-4-yl)pyrido[3,4-b]pyrazin-2-yl]piperazine] | – | – | – | – | IC50 (GPR6; [5]): 1 to 30 µM; IC50 (GPR3; [5]): 1 to 30 µM
CC(=O)N1CCc2nc(N3CCC(Oc4ccc(F)cc4F)CC3)c(-c3cnn(C(C)C)c3)nc2C1 [Compound 165, 1-{2-[4-(2,4-difluorophenoxy)piperidin-1-yl]-3-[1-(propan-2-yl)-1H-pyrazol-4-yl]-5H,6H,7H,8H-pyrido[3,4-b]pyrazin-6-yl}ethan-1-one] | < 0.1 µM | 1 to 30 µM | – | – | –
CC(C)(O)[C@H](O)c1cc2nc(N3CCN(Cc4ccc(F)cc4F)CC3)c(-c3cnn(C(F)F)c3)nc2cn1 (single isomer, unassigned) [Compound 396] | 0.1 to 1 µM | 1 to 30 µM | – | – | –
COc1ccc(OC2CCN(c3nc4c(nc3-c3cnn(C)c3)CN(C(C)=O)CC4)CC2)c(OC)c1 [Compound 426, 1-{2-[4-(2,4-dimethoxyphenoxy)piperidin-1-yl]-3-(1-methyl-1H-pyrazol-4-yl)-5H,6H,7H,8H-pyrido[3,4-b]pyrazin-6-yl}ethan-1-one] | 1 to 30 µM | 1 to 30 µM | – | – | –
COC(=O)/C=C/c1cc2nc(N3CCC(Oc4ccc(F)cc4F)CC3)c(-c3cnn(C)c3)nc2cn1 [Compound 745, methyl 3-{2-[4-(2,4-difluorophenoxy)-1-piperidyl]-3-(1-methyl-4-pyrazolyl)-1,4,6-triaza-7-naphthyl}acrylate] | – | – | 1 to 30 µM | 1 to 30 µM | –
CC(=O)N1CCc2nc(N3CCC(C(F)(F)c4ccc(F)cc4F)CC3)c(-c3cnn(C)c3)nc2C1 [Compound 698, 1-(2-(4-((2,4-difluorophenyl)difluoromethyl)piperidin-1-yl)-3-(1-methyl-1H-pyrazol-4-yl)-7,8-dihydropyrido[3,4-b]pyrazin-6(5H)-yl)ethan-1-one] | – | – | 0.1 to 1 µM | 1 to 30 µM | –
CNc1cncc(-c2nc3c(nc2N2CCC(Oc4ccc(F)cc4F)CC2)CCN(C(C)=O)C3)n1 [Compound 329, 1-{2-[4-(2,4-difluorophenoxy)piperidin-1-yl]-3-[6-(methylamino)pyrazin-2-yl]-5H,6H,7H,8H-pyrido[3,4-b]pyrazin-6-yl}ethan-1-one] | – | – | < 0.1 µM | 0.1 to 1 µM | –
